What was measured:
[1] = test system: CTLL mouse T cell line (Tc clone IL-2); assay: Cell proliferation test, CTLL; assay type: cell-based; details: 72 h, read-out: ED50 (concentration at which a 50% inhibition occurs)
Method: (§1) The cell culture in vitro proliferation test was used as an activity test for chemotherapeutics.
(§2) Clicks/RPMI 1640 medium (50:50) containing L-glutamine without any NaHCO3, in the form of powder for 10 1 (Seromed, Biochrom, Berlin, FRG) is dissolved in 9 l of double-distilled water, and sterile filtered into 900 ml bottles.
(§3) 900 ml of base medium are buffered using 9.5 ml of 7.5% strength sodium hydrogencarbonate solution and 5 ml of HEPES (N-2-hydroxyethyl-piperazine-N-2 ethanesulfonic acid) (Gibco, Eggenstein, FRG).
(§4) 900 ml of base medium plus 19 ml of NaHCO3 solution (7.5%; 10 ml of HEPES solution and 10 ml of L-glutamine solution (200 mM)).
(§5) For keeping the tumor cells and hybridoma cells, working medium containing 5% FCS is prepared. […]
(§6) The proliferation test was carried out in round bottom microtiter plates. […] In all tests, the values were determined four times. […] The value of the negative control was subtracted from all values determined and the difference of positive control minus negative control was set at 100%.
(§7) The plates were incubated at 37° C./5% CO2 for 72 h and the proliferation rate was determined correspondingly as with the mitogen-induced lymphocyte proliferation. […]

[2] = test system: HT-2 mouse T cell line (IL-2); assay: Cell proliferation test, HT-2; assay type: cell-based; details: 72 h, read-out: ED50 (concentration at which a 50% inhibition occurs)
Method: as §1, §2, §3, §4, §5, §6, §7

[3] = test system: CTL-J-K mouse T cell line (Tc, IL-2); assay: Cell proliferation test, CTL-J-K; assay type: cell-based; details: 72 h, read-out: ED50 (concentration at which a 50% inhibition occurs)
Method: as §1, §2, §3, §4, §5, §6, §7

[4] = test system: Cl 9/4 mouse T cell line (IL-4 dep.); assay: Cell proliferation test, Cl 9/4; assay type: cell-based; details: 72 h, read-out: ED50 (concentration at which a 50% inhibition occurs)
Method: as §1, §2, §3, §4, §5, §6, §7

[5] = test system: K III 5 mouse T cell line (Th, IL-2); assay: Cell proliferation test, K III 5; assay type: cell-based; details: 72 h, read-out: ED50 (concentration at which a 50% inhibition occurs)
Method: as §1, §2, §3, §4, §5, §6, §7

Spleen T (con A and PWM) = assay: Mitogen-induced lymphocyte proliferation, Spleen T; assay type: cell-based; details: Mus musculus, T-cell, 64 h, 48 h + 16 h with tritium thymidine, read-out: ED50 (concentration at which a 50% inhibition occurs)
Method: as §1, §2, §3, §4
(§8) Medium for mitogen-induced lymphocyte proliferation. Working medium containing 1% heat-inactivated (30 min, 56° C.) fetal calf serum (FCS) is prepared.
(§9) The mice are sacrificed by cervical dislocation and the spleens are removed under sterile conditions. The spleens are shredded on a sterile sieve having a mesh width of 80 "mesh" and are carefully transferred to a Petri dish containing working medium using the plunger of a plastic syringe (10 ml). […]
(§10) The group with mitogen additions and without preparation were defined as positive controls. […] The amount of radioactivity incorporated by these cells is measured in a beta counter (Packard, Tricarb 460c).

Spleen B (LPS) = assay: Mitogen-induced lymphocyte proliferation, Spleen B; assay type: cell-based; details: Mus musculus, B-cell, 64 h, 48 h + 16 h with tritium thymidine, read-out: ED50 (concentration at which a 50% inhibition occurs)
Method: as §1, §2, §3, §4, §8, §9, §10

[6] = test system: A20 2J mouse B cell tumor (BALB/c); assay: Cell proliferation test, A20 2J; assay type: cell-based; details: 72 h, read-out: ED50 (concentration at which a 50% inhibition occurs)
Method: as §1, §2, §3, §4, §5, §6, §7

[7] = test system: TRK 4 mouse B cell hybridoma; assay: Cell proliferation test, TRK 4; assay type: cell-based; details: 72 h, read-out: ED50 (concentration at which a 50% inhibition occurs)
Method: as §1, §2, §3, §4, §5, §6, §7

[8] = test system: TRK 5 mouse B cell hybridoma; assay: Cell proliferation test, TRK 5; assay type: cell-based; details: 72 h, read-out: ED50 (concentration at which a 50% inhibition occurs)
Method: as §1, §2, §3, §4, §5, §6, §7

[9] = test system: Bone marrow mouse (M-CSF, GM CSF); assay: Cell proliferation test, bone marrow; assay type: cell-based; details: 72 h, read-out: ED50 (concentration at which a 50% inhibition occurs)
Method: as §1, §2, §3, §4, §5, §6, §7

[10] = test system: WEHI 279 mouse B cell lymphoma; assay: Cell proliferation test, WEHI 279; assay type: cell-based; details: 72 h, read-out: ED50 (concentration at which a 50% inhibition occurs)
Method: as §1, §2, §3, §4, §5, §6, §7

P 388 D1 mouse Mo tumor = assay: Cell proliferation test, P 388 D1; assay type: cell-based; details: P388D1, 72 h, read-out: ED50 (concentration at which a 50% inhibition occurs)
Method: as §1, §2, §3, §4, §5, §6, §7

[11] = test system: 7TD1 mouse B cell hybridoma (IL-6); assay: Cell proliferation test, 7TD1; assay type: cell-based; details: 72 h, read-out: ED50 (concentration at which a 50% inhibition occurs)
Method: as §1, §2, §3, §4, §5, §6, §7

[12] = test system: PB-3C mouse mast cell line (IL-3); assay: Cell proliferation test, PB-3C; assay type: cell-based; details: 72 h, read-out: ED50 (concentration at which a 50% inhibition occurs)
Method: as §1, §2, §3, §4, §5, §6, §7

DA-1 mouse tumor (IL-3) = assay: Cell proliferation test, DA-1; assay type: cell-based; details: 72 h, read-out: ED50 (concentration at which a 50% inhibition occurs)
Method: as §1, §2, §3, §4, §5, §6, §7

7D4 rat hybridoma = assay: Cell proliferation test, 7D4; assay type: cell-based; details: 72 h, read-out: ED50 (concentration at which a 50% inhibition occurs)
Method: as §1, §2, §3, §4, §5, §6, §7

[13] = test system: A431 human epidermoid carcinoma; assay: Cell proliferation test, A431; assay type: cell-based; details: A-431, 72 h, read-out: ED50 (concentration at which a 50% inhibition occurs)
Method: as §1, §2, §3, §4, §5, §6, §7

[14] = test system: KB human epidermoid carcinoma; assay: Cell proliferation test, KB; assay type: cell-based; details: 72 h, read-out: ED50 (concentration at which a 50% inhibition occurs)
Method: as §1, §2, §3, §4, §5, §6, §7

[15] = test system: HFF human foreskin fibroblast; assay: Cell proliferation test, HFF; assay type: cell-based; details: 72 h, read-out: ED50 (concentration at which a 50% inhibition occurs)
Method: as §1, §2, §3, §4, §5, §6, §7

[16] = test system: HL-60 human promyelomonocytic leukemia; assay: Cell proliferation test, HL-60; assay type: cell-based; details: 72 h, read-out: ED50 (concentration at which a 50% inhibition occurs)
Method: as §1, §2, §3, §4, §5, §6, §7

[17] = Acute toxicity on oral administration, mouse; details: in vivo, NMRI mouse, 3 weeks, Litchfield and Wilcoxon
Method: (§11) Acute toxicity on oral administration
(§12) Compound 1 was administered orally to the mice or rats to determine the acute toxicity.
(§13) The LD50 values were determined according to Litchfield and Wilcoxon.
(§14) The weight of the NMRI mice (NMRI : Naval Medical Research Institute) is 20 to 25 g and that of the SD rats (SD: Sprague-Dawley) is 120 to 165 g. The mice were fasted for about 18 hours before the test. They are fed normally again 5 hours after administration of the substances tested. After 3 weeks, the animals were sacrificed by means of chloroform and dissected. 6 animals are used per dose.

[18] = Acute toxicity on oral administration, rat; details: in vivo, SD rat, 3 weeks, Litchfield and Wilcoxon
Method: as §11, §12, §13, §14

[19] = Acute toxicity after intraperitoneal administration, mouse; details: in vivo, ip, NMRI mouse, 3 weeks, Litchfield and Wilcoxon
Method: Acute toxicity after intraperitoneal administration
The acute toxicity after intraperitoneal administration of the test substances was carried out using NMRI mice (20 to 25 g) and SD rats (120 to 195 g). The test substance was suspended in a 1% strength sodium carboxymethyl cellulose solution. The various doses of the test substance were administered to the mice in a volume of 10 ml/kg of body weight and to the rats in a volume of 5 ml/kg of body weight. 10 animals were used per dose. After 3 weeks, the acute toxicity was determined according to the method of Litchfield and Wilcoxon.

Compound: Cc1oncc1C(=O)Nc1ccc(C(F)(F)F)cc1 [Compound 1, 5-methylisoxazole-4-carboxylic acid (4-trifluoromethyl)anilide]
- IC50 [1]: 40 to 50 µM
- IC50 [2]: 40 to 50 µM
- IC50 [3]: 40 to 50 µM
- IC50 [4]: 25 µM
- IC50 [5]: 1 to 3 µM
- IC50 (Spleen T (con A and PWM)): 10 µM
- IC50 (Spleen B (LPS)): 10 µM
- IC50 [6]: 1 to 3 µM
- IC50 [7]: 5 µM
- IC50 [8]: 5 µM
- IC50 [9]: 5 µM
- IC50 [10]: ≤ 1 µM
- IC50 (P 388 D1 mouse Mo tumor): 10 µM
- IC50 [11]: 10 µM
- IC50 [12]: 20 µM
- IC50 (DA-1 mouse tumor (IL-3)): 5 µM
- IC50 (7D4 rat hybridoma): ≤ 1 µM
- IC50 [13]: 15 µM
- IC50 [14]: 15 µM
- IC50 [15]: 40 µM
- IC50 [16]: 25 µM
- LD50 at 504 h [17]: 445 mg/kg
- LD50 at 504 h [18]: 235 mg/kg

Compound: C/C(O)=C(\C#N)C(=O)Nc1ccc(C(F)(F)F)cc1 [Compound 2, N-(4-trifluoromethylphenyl)-2-cyano-3-hydroxycrotonamide]
- LD50 at 504 h [18]: 160 mg/kg
- LD50 at 504 h [19]: 100 to 200 mg/kg

Reference: patent US5532259A, “Isoxazole-4-carboxamides and hydroxyalkylidenecyanoacetamides, pharmaceuticals containing these compounds and their use” (Hoechst Aktiengesellschaft, priority 1990, dated 1996)
